System: subjects with vitiligo (depigmented areas on neck, trunk and extremities)
Test: Efficacy and safety study in vitiligo, blinded investigator evaluation on a score of 0 to 7
Type: in vivo
Conditions: share of the subjects in the group; after the 20 week topical treatment regimen was completed; nonfacial areas
Experimental: An efficacy and safety study was conducted to compare the effects of bimatoprost monotherapy, mometasone monotherapy, and the combination of bimatoprost and mometasone. 18 randomized subjects completed the 20 week study, five coming in each of the bimatoprost monotherapy and mometasone monotherapy groups with the other eight coming in the bimatoprost/mometasone combination group. Subjects with vitiligo applied the corresponding drug(s) to depigmented areas on their neck, truck, and extremities. Per FDA request, facial areas where not treated during the study. For the bimatoprost monotherapy group, subjects were instructed to administer bimatoprost twice daily (morning and evening) for all 20 weeks. For the mometasone monotherapy group, subjects were instructed to administer mometasone once daily in the morning for weeks 1-12 and 17-20. Placebo (Cetaphil) was instructed to be administered in the morning for weeks 13-16 and in the evening for all 20 weeks. For the bimatoprost/mometasone combination group, subjects were instructed to administer mometasone once daily in the morning for weeks 1-12 and 17-20 and placebo was administered in the morning for weeks 13-16. Subjects were instructed to administer bimatoprost once daily evening for all 20 weeks. Subjects in either the bimatoprost monotherapy group or the bimatoprost/mometasone combination group the subjects were instructed to administer bimatoprost in the form of a 0.03 wt. % solution which was to be applied in a dose of 1 to 2 drops per 2 cm^2 body surface area. Subjects in either the mometasone monotherapy group or the bimatoprost/mometasone combination group the subjects were instructed to administer mometasone in the form of 0.1 wt. % mometasone furoate cream which was to be applied in a dose of 1 to 2 pea-sized quantities per anatomic area. The subjects were blind as to which group they were in and therefore which drug(s) they were administering. During the study period, the subjects were periodically evaluated by an investigator. The investigators evaluated the subjects on a score of 0 to 7 with 0 meaning that the subject's condition was worse, 1 being unchanged, 2 being slight improvement (approximately 10% improvement), 3 being mild improvement (approximately 10 to 25% improvement), 4 being moderate improvement (approximately 25 to 50% improvement), 5 being marked improvement (approximately 50 to 75% improvement), 6 being almost cleared (approximately 75 to 99% improvement), 7 being cleared (100% improvement). Like the subjects, the investigators were blind as to which group the subjects they were evaluating were in and therefore which drug(s) they were evaluating were administering.

SMILES | subjects with mild improvement (score 3, approximately 10 to 25% improvement) [%] | subjects with moderate improvement (score 4, approximately 25 to 50% improvement) [%] | subjects with slight improvement (score 2, approximately 10% improvement) [%]
CCNC(=O)CCC/C=C\C[C@@H]1[C@@H](/C=C/[C@@H](O)CCc2ccccc2)[C@H](O)C[C@@H]1O [bimatoprost, Bimatoprost] | 60 | 40 | –
C[C@@H]1C[C@H]2[C@@H]3CCC4=CC(=O)C=C[C@]4(C)[C@@]3(Cl)[C@@H](O)C[C@]2(C)[C@@]1(OC(=O)c1ccco1)C(=O)CCl [mometasone, mometasone furoate] | 40 | – | 60

— patent US20180200263A1, “TOPICAL TREATMENT REGIMENS CONTAINING A PROSTAGLANDIN F2a ANALOG AND A TOPICAL STEROID” (priority 2015, published 2018)
